Experimental findings from patent US9440982B2 (Eolas Therapeutics, Inc., priority 2012, dated 2016) are described below.

One series deals with T1, OX2 (Homo sapiens, UniProt O43614).
T1 construct: expressed in transfected cells; host or cells: CHO (CHO-OX2, kept under selection antibiotic)
T1 sequence (O43614 1-444): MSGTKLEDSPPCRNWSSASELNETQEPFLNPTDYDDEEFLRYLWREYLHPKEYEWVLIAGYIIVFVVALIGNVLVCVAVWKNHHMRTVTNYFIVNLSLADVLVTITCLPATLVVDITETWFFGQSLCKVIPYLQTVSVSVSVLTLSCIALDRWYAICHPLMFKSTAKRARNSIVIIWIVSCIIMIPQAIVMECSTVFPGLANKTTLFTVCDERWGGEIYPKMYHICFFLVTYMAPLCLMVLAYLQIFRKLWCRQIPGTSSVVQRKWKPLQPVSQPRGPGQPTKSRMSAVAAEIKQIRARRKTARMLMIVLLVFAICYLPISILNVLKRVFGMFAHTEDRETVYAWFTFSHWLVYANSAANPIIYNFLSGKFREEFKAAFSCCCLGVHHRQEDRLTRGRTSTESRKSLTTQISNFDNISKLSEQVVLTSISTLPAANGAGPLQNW
As to the kind of experiment: Orexin receptor cell-based functional assay, [Ca2+]i by FLIPR, CHO-OX2 cells. The conditions noted are these: [Ca2+]i by FLIPR, antagonist dose-range 0.1 nM-10 μM, EC90 of OXA, read-out: OX2. On the procedure:
Measurement of [Ca^2+]i using a FLIPR: CHO—OX1 or CHO—OX2 cells are seeded into black-walled clear-base 384-well plates (Costar) at a density of 20,000 cells per well in F12-K medium supplemented with 10% FBS and selection antibiotic (500 ug/ml G418 or 15 ug/ml Blasticidin) and cultured overnight. The cells are incubated with equal volume of calcium4 loading buffer (Molecular Devices, Inc.) containing 2.5 mM probenecid at 37° C. for 30 min, followed by putative OX1 or OX2 receptor antagonists (dose-range 0.1 nM-10 μM) for another 30 min.
The cells are incubated with equal volume of calcium6 loading buffer (Molecular Devices, Inc.) containing 2.5 mM probenecid at 37° C. for 2 h, followed by test compounds (dose-range 0.1 nM-10 μM) for another 30 min.

A further series has as its target T2, CYP3A4 (Homo sapiens, UniProt P08684).
T2 construct: pre-incubated with human liver microsomes and NADPH; from tissue; host or cells: human liver microsomes
Briefly: Cytochrome P450 inhibition assay (midazolam hydroxylation). Type of series: in vitro ADME. The note with it: human, human liver microsomes, probe midazolam (hydroxylation to 1′-hydroxymidazolam), 10 μM test compound, midazolam at approximately its Km. In outline: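 Percent inhibition of midazolam 1′-hydroxylation by 10 μM compound was measured, midazolam dosed at about Km. Time-dependent inhibition was probed by a 30 min preincubation of compound with human liver microsomes and NADPH ahead of substrate, compared against samples without preincubation.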
A general note: Microsomes from liver hold many membrane-bound enzymes, among them those of drug oxidation.

A further series deals with T3, OX1 (Homo sapiens, UniProt O43613).
T3 construct: expressed in transfected cells; host or cells: CHO (CHO-OX1, kept under selection antibiotic)
T3 sequence (O43613 1-425): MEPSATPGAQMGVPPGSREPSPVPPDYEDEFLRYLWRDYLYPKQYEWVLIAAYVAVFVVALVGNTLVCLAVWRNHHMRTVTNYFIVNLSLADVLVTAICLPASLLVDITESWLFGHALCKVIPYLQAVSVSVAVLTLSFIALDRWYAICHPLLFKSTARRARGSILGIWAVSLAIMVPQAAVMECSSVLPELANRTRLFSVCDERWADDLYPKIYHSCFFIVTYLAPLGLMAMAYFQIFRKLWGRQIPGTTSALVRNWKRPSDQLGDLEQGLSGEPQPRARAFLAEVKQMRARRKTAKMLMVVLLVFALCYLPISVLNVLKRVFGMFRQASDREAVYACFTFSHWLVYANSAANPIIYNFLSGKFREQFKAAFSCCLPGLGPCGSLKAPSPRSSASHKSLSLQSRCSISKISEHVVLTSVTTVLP
As to the kind of experiment: Orexin receptor cell-based functional assay, [Ca2+]i by FLIPR, CHO-OX1 cells. The note with it: CHO-OX1 cells, [Ca2+]i by FLIPR, antagonist dose-range 0.1 nM-10 μM, EC90 of OXA; read-out: OX1. The essentials: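 Antagonist mode FLIPR calcium read in CHO-OX1 and CHO-OX2 lines. Test compounds, dosed 0.1 nM-10 μM, preincubated 30 min after 37° C dye loading with 2.5 mM probenecid (calcium4 for 30 min or calcium6 for 2 h).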

The structures appear in SMILES notation.

T2 sequence (P08684 whole entry): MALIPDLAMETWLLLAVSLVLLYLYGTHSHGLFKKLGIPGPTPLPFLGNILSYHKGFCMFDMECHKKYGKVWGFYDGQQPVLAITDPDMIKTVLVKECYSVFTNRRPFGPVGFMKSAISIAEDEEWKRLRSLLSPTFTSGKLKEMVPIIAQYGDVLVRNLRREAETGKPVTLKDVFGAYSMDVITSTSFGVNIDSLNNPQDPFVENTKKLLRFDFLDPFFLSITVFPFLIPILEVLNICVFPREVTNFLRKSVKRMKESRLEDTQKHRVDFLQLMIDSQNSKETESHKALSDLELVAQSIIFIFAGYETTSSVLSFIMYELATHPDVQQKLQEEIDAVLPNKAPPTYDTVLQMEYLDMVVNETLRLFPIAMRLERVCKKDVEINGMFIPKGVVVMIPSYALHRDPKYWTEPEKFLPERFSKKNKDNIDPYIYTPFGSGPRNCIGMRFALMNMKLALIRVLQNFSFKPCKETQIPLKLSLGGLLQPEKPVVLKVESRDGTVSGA

For the compound `Cc1c(F)ccc(C(=O)N2CCC[C@@H](C)[C@H]2CNc2ccc(C(F)(F)F)cn2)c1-n1nccn1` [Example A344, (4-Fluoro-3-methyl-2-(2H-1,2,3-triazol-2-yl)phenyl)((2S,3R)-3-methyl-2-(((5-(trifluoromethyl)pyridin-2-yl)amino)methyl)piperidin-1-yl)methanone], the IC50 at OX2 was 2800 nM; at OX1, 2 nM. In addition, on CYP3A4, at 10 µM the inhibition was 75%.

For the compound `Cc1ccc(-n2nccn2)c(C(=O)N2CCC[C@@H](C)[C@H]2COc2ccc(C(F)(F)F)cn2)c1` [Example A106], the IC50 came to 2300 nM at OX2 and 7 nM on OX1. Besides, the inhibition – broadly, the relative decrease from the control value, in per cent – at 10 µM against CYP3A4 is 54%.

As for `C[C@@H]1CCCN(C(=O)c2c(F)ccc(F)c2-c2ncccn2)[C@@H]1CNc1ccc(C(F)(F)F)cn1` [Example A334, (3,6-difluoro-2-(pyrimidin-2-yl)phenyl)((2S,3R)-3-methyl-2-(((5-(trifluoromethyl)pyridin-2-yl)amino)methyl)piperidin-1-yl)methanone], the results for the IC50 at OX2 and on OX1 were 500 nM and 2 nM, respectively. On CYP3A4, this compound gave an inhibition at 10 µM of 54%.

`Cc1ccc(C(=O)N2CCC[C@@H](C)[C@H]2CNc2ccc(C(F)(F)F)cn2)c(-n2nccn2)c1F` [Example A356, (3-Fluoro-4-methyl-2-(2H-1,2,3-triazol-2-yl)phenyl)((2S,3R)-3-methyl-2-(((5-(trifluoromethyl)pyridin-2-yl)amino)methyl)piperidin-1-yl)methanone]: the IC50 was found to be 3900 nM on OX2 and 2 nM at OX1. Further, on CYP3A4, the inhibition at 10 µM was 86%.

On to `C[C@@H]1CCCN(C(=O)c2c(F)ccc(F)c2-c2ncccn2)[C@@H]1CNc1ncc(C(F)(F)F)cn1` [Example A335, (3,6-difluoro-2-(pyrimidin-2-yl)phenyl)((2S,3R)-3-methyl-2-(((5-(trifluoromethyl)pyrimidin-2-yl)amino)methyl)piperidin-1-yl)methanone], for which the IC50 was more than 5000 nM at OX2 and 4 nM at OX1. Further, on CYP3A4, the inhibition at 10 µM was 44%.

`Cc1cc(F)c(-n2nccn2)c(C(=O)N2CCC[C@@H](C)[C@H]2CNc2ccc(C(F)(F)F)cn2)c1` [Example A372, (3-Fluoro-5-methyl-2-(2H-1,2,3-triazol-2-yl)phenyl)((2S,3R)-3-methyl-2-(((5-(trifluoromethyl)pyridin-2-yl)amino)methyl)piperidin-1-yl)methanone]: the values for the IC50 on OX2 and on OX1 were 490 nM and 1 nM, respectively. On CYP3A4, this compound yielded an inhibition at 10 µM of 83%.

As to `Cc1cc(F)cc(C(=O)N2CCC[C@@H](C)[C@H]2CNc2ncc(C(F)(F)F)cn2)c1-n1nccn1` [Example A349, (5-fluoro-3-methyl-2-(2H-1,2,3-triazol-2-yl)phenyl)((2S,3R)-3-methyl-2-(((5-(trifluoromethyl)pyrimidin-2-yl)amino)methyl)piperidin-1-yl)methanone], the IC50 was more than 1000 nM at OX2 and 2 nM on OX1. Also, the inhibition at 10 µM against CYP3A4 stood at 59%.

For the compound `Cc1ccc(C(=O)N2CCC[C@@H](C)[C@H]2CNc2ncc(C(F)(F)F)cn2)c(-c2ncccn2)c1F` [Example A359, (3-fluoro-4-methyl-2-(pyrimidin-2-yl)phenyl)((2S,3R)-3-methyl-2-(((5-(trifluoromethyl)pyrimidin-2-yl)amino)methyl)piperidin-1-yl)methanone], the IC50 at OX2 is more than 5000 nM; on OX1, 6 nM. The same compound gave an inhibition at 10 µM against CYP3A4 of 52%.

With `Cc1ccc(F)c(C(=O)N2CCC[C@@H](C)[C@H]2CNc2ccc(C(F)(F)F)cn2)c1-c1ncccn1` [Example A354, (6-fluoro-3-methyl-2-(pyrimidin-2-yl)phenyl)((2S,3R)-3-methyl-2-(((5-(trifluoromethyl)pyridin-2-yl)amino)methyl)piperidin-1-yl)methanone], the IC50 on OX2 came to 790 nM; on OX1 it was 4 nM. On CYP3A4, this compound yielded an inhibition at 10 µM of 49%.
